Source: patent publication US8288352B2, “Auristatins having an aminobenzoic acid unit at the N terminus” (priority 2004, dated 2012)
Read-outs that look alike come from different tables or passages of the source. Non-standard residues stand in square brackets, D forms with d. Residues, ends and D or L forms follow the SMILES beside them. *: point of attachment. Dolaproine = CO[C@@H]([C@@H]1CCCN1)[C@@H](C)C(=O)O; Dil = CC[C@H](C)[C@H](NC)[C@@H](CC(=O)O)OC; X1 = C[C@@H](N*)[C@@H](O)c1ccccc1; NMeV = CN[C@H](C(=O)O)C(C)C

Assays:
[1] = test system: H3396 human breast carcinoma; experiment: In vitro cytotoxicity (alamarBlue) on H3396; assay type: cell-based; conditions: read-out: IC50 values
Experimental: (§1) Table 6 summarizes cytotoxic activity of MMAF, 100, 103, 107 on H3396 human breast carcinoma and Karpas-299 anaplastic large cell lymphoma cell lines assayed. To evaluate the cytotoxicity of Compounds 100, 103, and 107, cells were seeded at approximately 10,000 per well in 150 μl of culture medium containing graded doses of Compounds 100, 103, and 107 in quadruplicates at the initiation of assay. Cytotoxicity assays were usually carried out for 96 hours. Fifty μl of the alamarBlue™ dye was added to each well during the last 4 to 6 hours of the incubation to assess viable cells at the end of culture. Dye reduction was determined by fluorescence spectrometry using the excitation and emission wavelengths of 535 nm and 590 nm, respectively. For analysis, the extent of alamarBlue™ reduction by the treated cells was compared to that of the untreated control cells.

[2] = test system: Karpas-299 anaplastic large cell lymphoma cell line (CD30+); experiment: In vitro cytotoxicity (alamarBlue) on Karpas 299; assay type: cell-based, human
Experimental: as §1

[3] = Homo sapiens, KARPAS-299, 96 h, read-out: IC50 values
[4] = karpas 299, 96 hours, alamarBlue, read-out: IC50 values

## CC[C@H](C)[C@@H]([C@@H](CC(=O)N1CCC[C@H]1[C@H](OC)[C@@H](C)C(=O)N[C@@H](Cc1ccccc1)C(=O)OC(C)(C)C)OC)N(C)C(=O)[C@@H](NC(=O)c1ccc(N)cc1)C(C)C [Compound 100, 4-Abz-Val-Dil-Dap-Phe-OtBu]
[1]; Homo sapiens, H3396, 96 h
  IC50: 17.8 nM
[2]; [3]
  IC50: 1.8 nM

## CC[C@H](C)[C@@H]([C@@H](CC(=O)N1CCC[C@H]1[C@H](OC)[C@@H](C)C(=O)N[C@@H](Cc1ccccc1)C(=O)O)OC)N(C)C(=O)[C@@H](NC(=O)c1ccc(N)cc1)C(C)C [Compound 103, 4-Abz-Val-Dil-Dap-Phe]
[1]; Homo sapiens, H3396, 96 h
  IC50: > 100 nM
[2]; [3]
  IC50: 43 nM

## CC[C@H](C)[C@@H]([C@@H](CC(=O)N1CCC[C@H]1[C@H](OC)[C@@H](C)C(=O)N[C@@H](Cc1ccccc1)C(=O)OC)OC)N(C)C(=O)[C@@H](NC(=O)c1ccc(N)cc1)C(C)C [Compound 107, 4-Abz-Val-Dil-Dap-Phe-OMe]
[1]; Homo sapiens, H3396, 96 h
  IC50: 0.003 nM
[2]; [3]
  IC50: 0.12 nM

## CC[C@H](C)[C@@H]([C@@H](CC(=O)N1CCC[C@H]1[C@H](OC)[C@@H](C)C(=O)N[C@H](C)[C@@H](O)c1ccccc1)OC)N(C)C(=O)[C@@H](NC(=O)[C@@H](NC)C(C)C)C(C)C [MMAE, mono-methyl auristatin E, reference compound] (H-[NMeV]V[Dil][Dolaproine]-X1)
[1]; H3396, 96 hours, alamarBlue
  IC50: 0.8 nM
[2]; [4]
  IC50: 0.13 nM

## CC[C@H](C)[C@@H]([C@@H](CC(=O)N1CCC[C@H]1[C@H](OC)[C@@H](C)C(=O)N[C@@H](Cc1ccccc1)C(=O)O)OC)N(C)C(=O)[C@@H](NC(=O)[C@@H](NC)C(C)C)C(C)C [MMAF, N-methylvaline-valine-dolaisoleuine-dolaproine-phenylalanine, reference compound] (H-[NMeV]V[Dil][Dolaproine]F-OH)
[1]; H3396, 96 hours, alamarBlue
  IC50: 104 nM
[2]; [4]
  IC50: 130 nM

## cAC10-vc-MMAF: cAC10 Conjugate with Val-Cit linker and MMAF, average 4 drugs per antibody [reference compound]
[2]; cAC10 conjugates, all 4 drugs/Ab, CD30+ cell line Karpas 299
  IC50: 0.75 ng/mL
